Laboratory results: patent US20170274004A1, “TREATMENT OF CANCER USING TLR9 AGONIST WITH CHECKPOINT INHIBITORS” (IDERA PHARMACEUTICALS, INC., priority 2014, published 2017)

Key:
Assay type in all cases: in vivo, BALB/c mice
A20 cells = experiment: Intratumoral vs subcutaneous TLR9 agonist in A20 lymphoma model (Example 2)
Experimental: BALB/c mice (n=10) were implanted s.c with 3×10^6 A20 cells on the right flank. Treatment was initiated on day 8 with either intratumoral (i.t.) or subcutaneous (s.c.) injection of 2.5 mg/kg IMO-4. IMO-4 was given on days 8, 10, 12 and 14. Samples from placebo (PBS) control and IMO-4 treated tumor-bearing mice were collected on day 21 after tumor implantation. […] Intratumoral IMO-4 also modulated tumor checkpoint expression compared to subcutaneous administration thereby sensitizing the tumor microenvironment for combination with one or more checkpoint inhibitors (data not shown).

A20 lymphoma = experiment: Intratumoral TLR9 agonist in A20 lymphoma model, treated and distant tumors (Example 3)
CT26 cells [1] = experiment: Intratumoral TLR9 agonist in CT26 colon carcinoma model, treated and distant tumors (Example 4)
Experimental: (§1) BALB/c mice (n=9) were implanted s.c with 2×10^6 CT26 cells on the right and left flank. Treatment was initiated on day 7 with intratumoral injection in the left flank with 2.5 mg/kg IMO-4. IMO-4 was given on days 7, 9, 11, 13 and 15. Samples from placebo (PBS) control and IMO-4 treated tumor-bearing mice were collected on day 27 after tumor implantation. […] Intratumoral IMO-4 also modulated tumor checkpoint expression thereby sensitizing the tumor microenvironment for combination with one or more checkpoint inhibitors (data not shown).

B16 cells = experiment: Intratumoral TLR9 agonist in B16 melanoma model, treated and distant tumors (Example 5)
Experimental: as §1, with “s.c with 1×10^6 B16 cells on” for “s.c with 2×10^6 CT26 cells on”, “flank with of 2.5 mg/kg” for “flank with 2.5 mg/kg”, “on day 22 after tumor” for “on day 27 after tumor”

[2] = tested on: murine colon carcinoma CT26 cells; experiment: TLR9 agonist and anti-PD-1 mAb combination, CT26 treated and distant tumors (Example 7); conditions: FIG. 11
Experimental: BALB/c mice (n=8 per group) were implanted s.c with 1×10^7 murine colon carcinoma CT26 cells in right flank (Tumor 1) and left flank (Tumor 2). Treatment was initiated on day 7 when tumor volume on reaches 200 to 300 mm^3. 2.5 mg/kg IMO-4 (50 μg in 100 μl PBS) was i.t injected at right tumor nodules and anti-PD-1 mAb (10 mg/kg, 200 μg/mouse) was administered by i.p injection either alone or co-administered on days 7, 8, 11 and 12 for total 4 times. Tumor nodules were collected at day 14.

CT26 cells [3] = experiment: TLR9 agonist and anti-IDO1 inhibitor combination, CT26 treated tumors and systemic lung metastases (Example 9); conditions: compared with PBS group (nodules infiltrating most of the lung tissues); FIG. 16 legend
Experimental: BALB/c mice were implanted s.c with 1×10^7 CT26 cells on right flank. The mice were than i.v injected with 3×10^6 CT26 cells to establish lung metastases. Treatment was initiated on day 4. 2.5 mg/kg IMO-4 was administered intratumorally into solid tumors on the right flank and 75 mg/kg anti-IDO1 inhibitor was administered orally (p.o.). IMO-4 and anti-IDO1 inhibitor were given either alone or co-administered on days 4, 5, 7, and 8. Anti-IDO1 was administered twice. Samples from control, IMO-4, anti-IDO1 inhibitor or IMO-4 and anti-IDO1 inhibitor treated tumor-bearing mice were collected. FIGS. 14 through 17 show the effects of IMO-4 and anti-IDO1 inhibitor on directly treated tumors and systemic lung metastasis.

5-TCGAACG1TTCG1-X-G1CTTG1CAAG1CT-5′ (chain 1 TCGAACGTTCG; chain 2 TCGAACGTTCG; two copies joined 3'-3' by glycerol linker; G1 modified; modified_base (3)..(3) 2′-deoxy-7-deazaguanosine; modified_base (7)..(7) 2′-deoxy-7-deazaguanosine; modified_base (11)..(11) 2′-deoxy-7-deazaguanosine) [IMO-4]
antitumor activity (A20 cells; intratumoral 2.5 mg/kg on days 8, 10, 12, 14, FIG. 3): potent antitumor activity
CD3+ TIL infiltration (A20 cells; intratumoral 2.5 mg/kg, samples day 21, FIG. 3): induced
tumor checkpoint expression (A20 cells; intratumoral compared to subcutaneous administration, data not shown): modulated
antitumor activity, treated and distant tumor nodules (A20 lymphoma; intratumoral in left flank, 2.5 mg/kg on days 8, 10, 12, 14, FIG. 4): potent antitumor activity in both treated and distant tumor nodules
tumor checkpoint expression (A20 lymphoma; intratumoral, data not shown): modulated
antitumor activity, treated and distant tumor nodules (CT26 cells [1]; intratumoral in left flank, 2.5 mg/kg on days 7, 9, 11, 13, 15, FIG. 5): potent antitumor activity in both treated and distant tumor nodules
tumor checkpoint expression (CT26 cells [1]; intratumoral, data not shown): modulated
antitumor activity, treated and distant tumor nodules (B16 cells; intratumoral in left flank, 2.5 mg/kg on days 7, 9, 11, 13, 15, FIG. 6): potent antitumor activity in both treated and distant tumor nodules
tumor checkpoint expression (B16 cells; intratumoral, data not shown): modulated
CD3+ cells in tumor tissue ([2]; compared with few CD3+ cells in PBS (vehicle) mice): a large number of CD+3 cells
T lymphocyte infiltration into tumor tissues ([2]; tumor nodules collected day 14): increases
tumor nodules in lung tissues (CT26 cells [3]): tumor nodules are smaller than that of the PBS group
